Read-outs that look alike come from different tables or passages of the source.
Tests used:
Assay type in all cases: cell-based
[1] = test system: Aeromonas hydrophilia (aehy); assay: Example 3: colony color on chromogenic TSA II with 5% sheep blood (chromogen in medium); conditions: for Colony Color: CO2, 21 h
[2] = test system: Branhamella catarrhalis (brca); assay: as above; conditions: for Colony Color: CO2, 21 h
Candida albicans (caal) = assay: as above; conditions: for Colony Color: caal 10231, 24 h
[3] = test system: Citrobacter freundii (cifr); assay: as above
[4] = test system: Entercoccus faecalis (enfa); assay: as above
E. faecium (enfu) = assay: as above; conditions: for Colony Color: enfu 49032, 21 h
[5] = test system: E. coli (non-O157) (esco)
[6] = test system: Klebsiella pneumoniae (klpn); assay: Example 3: colony color on chromogenic TSA II with 5% sheep blood (chromogen in medium)
[7] = test system: Pseudomonas aeruginosa (psae); assay: as above; conditions: for Colony Color: CO2, 21 h
Salmonella spp. (sasp) = conditions: for Colony Color: CO2, 21 h
[8] = test system: Serratia marcescens (sema); assay: Example 3: colony color on chromogenic TSA II with 5% sheep blood (chromogen in medium)
[9] = test system: Streptococcus agalactiae (stag); assay: as above
[10] = test system: Staphylococcus aureus (stau); assay: as above
[11] = test system: Staphylococcus Coag Neg (step); assay: as above; conditions: for Colony Color: 21 h
S. milleri (stmi) = assay: as above
S. pneumoniae (stpn) = assay: as above
S pyogenes (stpy) = assay: as above; conditions: for Colony Color: 21 h
55 strains = assay: Example 3: color, hemolytic activity and growth over all 55 strains; conditions: chromogenic TSA II
Text: Steers, E. et al., Antibiot.

cakr 34135 = assay: Example 3: colony color on chromogenic TSA II with 5% sheep blood (chromogen in medium); conditions: CO2, 21 h
milu 9341 = assay: as above; conditions: CO2, 21 h
[12] = chromogenic TSA II with 5% Sheep Blood, 0.1 g/l, 3 strains tested
[13] = chromogenic TSA II with 5% Sheep Blood, 0.1 g/l, 2 strains tested
[14] = chromogenic TSA II with 5% Sheep Blood, 0.1 g/l, 6 strains tested
[15] = chromogenic TSA II with 5% Sheep Blood, 0.1 g/l, 1 strain tested
[16] = chromogenic TSA II with 5% Sheep Blood, 0.1 g/l, 5 strains tested

## O=S(=O)([O-])Oc1c[nH]c2ccc(Br)c(Cl)c12.[K+] [X-Sulf, 5-Br-4-Cl-3-indolyl-sulfate (Potassium salt)]
[1]; aehy 7965
  Colony Color: 0
[1]; aehy 7966
  Colony Color: 0
[1]; aehy 49847
  Colony Color: 0
[1]; [12]
  Colony Color (Summary): 0
[2]; brca 25238
  Colony Color: 0
[2]; brca 25240
  Colony Color: 0
[2]; [13]
  Colony Color (Summary): 0
Candida albicans (caal); CO2
  Colony Color: 0
Candida albicans (caal); air
  Colony Color: 0
Candida albicans (caal); [13]
  Colony Color (Summary): 0
[3]; One strain of Citrobacter
  Colony Color: grey blue
[3]; [13]
  Colony Color (Summary): +
[3]; cifr 8454, CO2, 21 h
  Colony Color: 0
[3]; cifr 33128, CO2, 21 h
  Colony Color: gb
[4]; [14]
  Colony Color (Summary): 0
[4]; enfa 597, CO2, 21 h
  Colony Color: 0
[4]; enfa 597, air, 21 h
  Colony Color: 0
[4]; enfa 10741, CO2, 21 h
  Colony Color: 0
[4]; enfa 10741, air, 21 h
  Colony Color: 0
[4]; enfa 12953, CO2, 21 h
  Colony Color: 0
[4]; enfa 12953, air, 21 h
  Colony Color: 0
[4]; enfa 14506, CO2, 21 h
  Colony Color: 0
[4]; enfa 14506, air, 21 h
  Colony Color: 0
[4]; enfa 29212, CO2, 21 h
  Colony Color: 0
[4]; enfa 29212, CO2, 24 h
  Colony Color: 0
[4]; enfa 29212, air, 21 h
  Colony Color: 0
[4]; enfa 29212, air, 24 h
  Colony Color: 0
E. faecium (enfu); [15]
  Colony Color (Summary): 0
E. faecium (enfu); CO2
  Colony Color: 0
E. faecium (enfu); air
  Colony Color: 0
[5]; [12]
  Colony Color (Summary): 0
[5]; esco 11775, CO2, 21 h
  Colony Color: 0
[5]; esco 25922, CO2, 24 h
  Colony Color: 0
[5]; esco 25922, air, 24 h
  Colony Color: 0
[5]; esco 33605, CO2, 21 h
  Colony Color: 0
[6]; [12]
  Colony Color (Summary): 0
[6]; klpn 13883, CO2, 21 h
  Colony Color: 0
[6]; klpn 33495, CO2, 24 h
  Colony Color: 0
[6]; klpn 33495, air, 24 h
  Colony Color: 0
[6]; klpn 33606, CO2, 21 h
  Colony Color: 0
[7]; [12]
  Colony Color (Summary): 0
[7]; psae 9027
  Colony Color: 0
[7]; psae 15442
  Colony Color: 0
[7]; psae 33607
  Colony Color: 0
Salmonella spp. (sasp); [13]
  Colony Color (Summary): 0
Salmonella spp. (sasp); saty 19430
  Colony Color: 0
Salmonella spp. (sasp); satym 14028
  Colony Color: 0
[8]; [15]
  Colony Color (Summary): 0
[8]; sema 13880, CO2, 21 h
  Colony Color: 0
[9]; [12]
  Colony Color (Summary): 0
[9]; stag 4768, CO2, 21 h
  Colony Color: 0
[9]; stag 4768, air, 21 h
  Colony Color: 0
[9]; stag 12386, CO2, 21 h
  Colony Color: 0
[9]; stag 12386, CO2, 24 h
  Colony Color: 0
[9]; stag 12386, air, 24 h
  Colony Color: 0
[10]; [16]
  Colony Color (Summary): 0
[10]; stau 1006, CO2, 21 h
  Colony Color: 0
[10]; stau 1007, CO2, 21 h
  Colony Color: 0
[10]; stau 1008, CO2, 21 h
  Colony Color: 0
[10]; stau 1009, CO2, 21 h
  Colony Color: 0
[10]; stau 25923, CO2, 24 h
  Colony Color: 0
[10]; stau 25923, air, 24 h
  Colony Color: 0
[11]; [16]
  Colony Color (Summary): 0
[11]; step 12228, CO2
  Colony Color: 0
[11]; step 12228, air
  Colony Color: 0
[11]; step cdc1, CO2
  Colony Color: 0
[11]; step cdc1, air
  Colony Color: 0
[11]; step cdc2, CO2
  Colony Color: 0
[11]; step cdc2, air
  Colony Color: 0
[11]; step cdc3, CO2
  Colony Color: 0
[11]; step cdc3, air
  Colony Color: 0
[11]; step cdc4, CO2
  Colony Color: 0
[11]; step cdc4, air
  Colony Color: 0
S. milleri (stmi); [13]
  Colony Color (Summary): 0
S. milleri (stmi); stmi 6249, air, 21 h
  Colony Color: 0
S. pneumoniae (stpn); [14]
  Colony Color (Summary): 0
S. pneumoniae (stpn); stpn 1259, CO2, 21 h
  Colony Color: 0
S. pneumoniae (stpn); stpn 1260, CO2, 21 h
  Colony Color: 0
S. pneumoniae (stpn); stpn 1628, CO2, 21 h
  Colony Color: 0
S. pneumoniae (stpn); stpn 6303, CO2, 24 h
  Colony Color: 0
S. pneumoniae (stpn); stpn 6303, air, 24 h
  Colony Color: 0
S. pneumoniae (stpn); stpn 6305, CO2, 24 h
  Colony Color: 0
S. pneumoniae (stpn); stpn 6305, air, 24 h
  Colony Color: 0
S pyogenes (stpy); [14]
  Colony Color (Summary): 0
S pyogenes (stpy); stpy 1027, CO2
  Colony Color: 0
S pyogenes (stpy); stpy 1028, CO2
  Colony Color: 0
S pyogenes (stpy); stpy 1029, CO2
  Colony Color: 0
S pyogenes (stpy); stpy 1030, CO2
  Colony Color: 0
S pyogenes (stpy); stpy 19615, CO2
  Colony Color: 0
S pyogenes (stpy); stpy 19615, air
  Colony Color: 0
S pyogenes (stpy); stpy 49117, CO2
  Colony Color: 0
S pyogenes (stpy); stpy 49117, air
  Colony Color: 0
S pyogenes (stpy); stpy 51339, CO2
  Colony Color: 0
S pyogenes (stpy); stpy 51339, air
  Colony Color: 0
55 strains
  Activity (color) for most organisms: inactive
Cakr 34135
  Colony Color: 0
Milu 9341
  Colony Color: 0

Source: patent publication US20020086278A1, “CHROMOGENIC MEDIA CONTAINING BLOOD OR HEMIN” (priority 1999, published 2002)
